Square brackets hold non-standard residues; d marks the D form. Ends that are not written are not given here. Sta = CC(C)C[C@H](N)[C@@H](O)CC(=O)O
Tested on: L40I mutant HTLV-1 PR
Assay: Inhibition of L40I mutant HTLV-1 PR, fluorescent substrate cleavage
Type: biochemical, Human T-cell leukemia virus type 1 (HTLV-1)
Conditions: test compound 50 nM; L40I mutant HTLV-1 PR 1 μg in 50 μL reaction mixture (as a dimer); substrate H-Lys([7-methoxycoumarin-4-yl]acetyl)-APQVL-(p-nitrophenylalanine)-VMHPL-OH; inverse percentage of remaining activity; single determination

For Ac-APQV[Sta]VMHP [Statine Inhibitor], which “Percent inhibition (%) at 50 nM” value is on record?
Its value is 19%.

From paper PMC2918672 (Journal of molecular biology, 2010)
